# Data as given in patent US8367328B2, “Method for synthesizing DNA” (Takara Bio Inc., priority 1998, dated 2013).
# System: LA-Taq DNA Polymerase
# Experiment: PCR with LA-Taq DNA Polymerase in the presence of cationic complexes (GC-rich region, long chain)
# Type: biochemical
# Conditions: for DNA synthesis reaction when amplifying GC-rich region: human ApoE genomic region 441 bp, GC about 74%, 100 ng HT29 genomic DNA, complex 50, 100, 200 or 500 μM, no amplification without addition
# Procedure: The effects on addition of the cationic complex were examined when PCR amplification was carried out with a GC-rich region as a target. As the cationic complex, there was used tris(ethylenediamine)cobalt (III) chloride, or tris(ethylenediamine)rhodium (III) trichloride•trihydrate. Template DNA was prepared from HT29 cells by conventional method. Amplified region and amplified chain lengths were human ApoE genomic region and 441 bp. The GC content of this amplified region was about 74%. As DNA polymerase, TaKaRa LA-Taq DNA Polymerase (manufactured by Takara Shuzo Co., Ltd., hereinafter referred to as “LA-Taq DNA Polymerase”) was used. The composition for a reaction mixture is shown below.
# 25 μl of 2×GC buffer I (manufactured by Takara Shuzo Co., Ltd.), 0.4 mM each of dATP, dCTP, dGTP and dTTP, 2.5 U of LA-Taq DNA Polymerase, 100 ng of HT29 cells genomic region, and 20 pmol each of primers ApoE-1 and ApoE-2 (a final volume being 50 μl). Each of the above cationic complex was added to the above reaction mixture so as to have a final concentration of 50, 100, 200, or 500 μM, respectively.
# The reaction was carried out in Fast mode by using TaKaRa PCR Thermal Cycler Personal. As regarding the reaction conditions, the reaction in 30 cycles was carried out, wherein one cycle of reaction comprises a process consisting of 98° C., 5 seconds—64° C., 10 seconds—72° C., 40 seconds. On the other hand, as a control, the reaction for one without addition of the cationic complex was carried out in the same manner.
# After the termination of the reaction, 5 μl of each of the resulting reaction mixtures was subjected to electrophoresis on 2% agarose gel containing ethidium bromide in an amount of 0.00005%. The gel after the electrophoresis was subjected to ultraviolet irradiation to visualize the band ascribed to the amplified product, whereby an amplified fragment was confirmed.
# The effects on the amplified chain length when adding a cationic complex were examined. As the cationic complex, there was used hexaamminecobalt (III) trichloride. […]
smiles,measurement,setting,value
"NCCN.NCCN.NCCN.[Cl-].[Cl-].[Cl-].[Co+3] [[Co(H2NCH2CH2NH2)3]Cl3, tris(ethylenediamine)cobalt (III) chloride]",DNA synthesis reaction when amplifying GC-rich region,,enhanced as the concentration of added complex was increased
"N.N.N.N.N.N.[Cl-].[Cl-].[Cl-].[Co+3] [[Co(NH3)6]Cl3, hexaamminecobalt (III) chloride]",Amplification of desired long DNA fragment,"LA-Taq, 1 ng λDNA, primers λL36/λR485 (48.5 kb), 30 cycles 98°C 10 s–68°C 15 min, 50 μM, only slight without addition",excellently amplified
"NCCN.NCCN.NCCN.O.O.O.[Cl][Rh]([Cl])[Cl] [[Rh(H2NCH2CH2NH2)3]Cl3, tris(ethylenediamine)rhodium (III) trichloride•trihydrate]",DNA synthesis reaction when amplifying GC-rich region,,"enhanced as the concentration of added complex was increased as 100 μM, 200 μM and 500 μM"
